According to ChEMBL document CHEMBL1201862, “PubChem BioAssay data set” (2004):
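Exposure lasted 48 hours, with cells grown in 96-well plates and compounds tested at five concentrations. GI50: concentration for 50% inhibition of growth.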 Calls of active or inactive are those of the source. No stated cut-off is given here; in the data, active = GI50 up to about 1.1 µM and inactive = higher.

Legend:
Assay in all cases: DTP human tumour cell line panel, 48 h
786-0 = tested on: 786-0
HCT-116 = tested on: HCT-116
TK-10 = tested on: TK-10
NCI-H522 = tested on: NCI-H522
SK-MEL-28 = tested on: SK-MEL-28
HOP-92 = tested on: HOP-92
PC-3 = tested on: PC-3
M14 = tested on: M14
CAKI-1 = tested on: CAKI-1
SW-620 = tested on: SW-620
HOP-62 = tested on: HOP-62
HL-60 = tested on: HL-60
COLO 205 = tested on: COLO 205
SK-OV-3 = tested on: SK-OV-3
MDA-MB-435 = tested on: MDA-MB-435
NCI-H460 = tested on: NCI-H460
ACHN = tested on: ACHN
OVCAR-5 = tested on: OVCAR-5
SK-MEL-2 = tested on: SK-MEL-2

Structure (SMILES): O=P1(c2ccccc2)C(c2ccccc2)CCC1c1ccccc1 (stereo unspecified)
- GI50 (786-0): > 100 µM (inactive)
- GI50 (HCT-116): 35.6 µM (inactive)
- GI50 (TK-10): 71 µM (inactive)
- GI50 (NCI-H522): 26.4 µM (inactive)
- GI50 (SK-MEL-28): > 100 µM (inactive)
- GI50 (HOP-92): 45 µM (inactive)
- GI50 (PC-3): 33.6 µM (inactive)
- GI50 (M14): 68.5 µM (inactive)
- GI50 (CAKI-1): 16.4 µM (inactive)
- GI50 (SW-620): 89.9 µM (inactive)
- GI50 (HOP-62): > 100 µM (inactive)
- GI50 (HL-60): 10.2 µM (inactive)
- GI50 (COLO 205): 66.7 µM (inactive)
- GI50 (SK-OV-3): 40.9 µM (inactive)
- GI50 (MDA-MB-435): 34.9 µM (inactive)

Structure (SMILES): Cc1ccc(C(=O)/C=C2\Nc3ccccc3NC2=O)cc1
- GI50 (786-0): 2.49 µM (inactive)
- GI50 (HCT-116): 2.17 µM (inactive)
- GI50 (TK-10): 2.1 µM (inactive)
- GI50 (NCI-H522): 2.49 µM (inactive)
- GI50 (NCI-H460): 6.43 µM (inactive)
- GI50 (SK-MEL-28): 5.3 µM (inactive)
- GI50 (HOP-92): 3.28 µM (inactive)
- GI50 (ACHN): 3.4 µM (inactive)
- GI50 (OVCAR-5): 29.4 µM (inactive)
- GI50 (PC-3): 4.84 µM (inactive)
- GI50 (M14): 9.27 µM (inactive)
- GI50 (CAKI-1): 2.44 µM (inactive)
- GI50 (SK-MEL-2): 4.11 µM (inactive)
- GI50 (HOP-62): 2.04 µM (inactive)
- GI50 (HL-60): > 100 µM (inactive)
- GI50 (COLO 205): > 100 µM (inactive)
- GI50 (SK-OV-3): 2.19 µM (inactive)
- GI50 (MDA-MB-435): 10.9 µM (inactive)

Structure (SMILES): COc1cccc(/N=C/c2cc3cc(Br)ccc3nc2Cl)c1
- GI50 (786-0): 2.91 µM (inactive)
- GI50 (HCT-116): 11.2 µM (inactive)
- GI50 (NCI-H522): 8.43 µM (inactive)
- GI50 (NCI-H460): 13.8 µM (inactive)
- GI50 (SK-MEL-28): > 50 µM (inactive)
- GI50 (HOP-92): 30.3 µM (inactive)
- GI50 (OVCAR-5): > 50 µM (inactive)
- GI50 (PC-3): 8.67 µM (inactive)
- GI50 (M14): > 50 µM (inactive)
- GI50 (CAKI-1): 7.06 µM (inactive)
- GI50 (SW-620): 11.8 µM (inactive)
- GI50 (SK-MEL-2): 13.7 µM (inactive)
- GI50 (HOP-62): 41.4 µM (inactive)
- GI50 (HL-60): 10 µM (inactive)
- GI50 (COLO 205): > 50 µM (inactive)
- GI50 (SK-OV-3): 15.2 µM (inactive)
- GI50 (MDA-MB-435): 11.1 µM (inactive)

Structure (SMILES): Brc1ccc(C2CC3(c4ccccc4)ON=C(c4ccccc4)N3c3ccccc3S2)cc1 (stereo unspecified)
- GI50 (786-0): > 100 µM (inactive)
- GI50 (HCT-116): 5.87 µM (inactive)
- GI50 (TK-10): > 100 µM (inactive)
- GI50 (NCI-H522): > 100 µM (inactive)
- GI50 (NCI-H460): > 100 µM (inactive)
- GI50 (SK-MEL-28): > 100 µM (inactive)
- GI50 (HOP-92): > 100 µM (inactive)
- GI50 (ACHN): > 100 µM (inactive)
- GI50 (OVCAR-5): > 100 µM (inactive)
- GI50 (PC-3): > 100 µM (inactive)
- GI50 (M14): > 100 µM (inactive)
- GI50 (SW-620): > 100 µM (inactive)
- GI50 (SK-MEL-2): > 100 µM (inactive)
- GI50 (HOP-62): > 100 µM (inactive)
- GI50 (HL-60): > 100 µM (inactive)
- GI50 (COLO 205): > 100 µM (inactive)
- GI50 (SK-OV-3): > 100 µM (inactive)
- GI50 (MDA-MB-435): > 100 µM (inactive)

Structure (SMILES): CC(C)C1CSC2N1C(=O)C2(OCc1ccccc1)C1CC1 (stereo unspecified)
- GI50 (786-0): > 100 µM (inactive)
- GI50 (HCT-116): > 100 µM (inactive)
- GI50 (TK-10): > 100 µM (inactive)
- GI50 (NCI-H522): > 100 µM (inactive)
- GI50 (NCI-H460): > 100 µM (inactive)
- GI50 (SK-MEL-28): > 100 µM (inactive)
- GI50 (HOP-92): > 100 µM (inactive)
- GI50 (ACHN): > 100 µM (inactive)
- GI50 (OVCAR-5): > 100 µM (inactive)
- GI50 (PC-3): 69 µM (inactive)
- GI50 (M14): > 100 µM (inactive)
- GI50 (CAKI-1): > 100 µM (inactive)
- GI50 (SW-620): > 100 µM (inactive)
- GI50 (HOP-62): > 100 µM (inactive)
- GI50 (HL-60): 73.6 µM (inactive)
- GI50 (COLO 205): > 100 µM (inactive)
- GI50 (SK-OV-3): > 100 µM (inactive)
- GI50 (MDA-MB-435): > 100 µM (inactive)

Structure (SMILES): Cn1c(N)nc(-c2ccc(Cl)cc2)c1SSc1c(-c2ccc(Cl)cc2)nc(N)n1C
- GI50 (786-0): 1.92 µM (inactive)
- GI50 (HCT-116): 4.23 µM (inactive)
- GI50 (TK-10): 1.86 µM (inactive)
- GI50 (NCI-H522): 1.66 µM (inactive)
- GI50 (NCI-H460): 3.45 µM (inactive)
- GI50 (SK-MEL-28): 2.02 µM (inactive)
- GI50 (HOP-92): 1.97 µM (inactive)
- GI50 (ACHN): 2.38 µM (inactive)
- GI50 (OVCAR-5): 1.86 µM (inactive)
- GI50 (PC-3): 1.84 µM (inactive)
- GI50 (M14): 2.12 µM (inactive)
- GI50 (SW-620): 2.07 µM (inactive)
- GI50 (SK-MEL-2): 17.8 µM (inactive)
- GI50 (HOP-62): 2.86 µM (inactive)
- GI50 (HL-60): 1.05 µM (active)
- GI50 (COLO 205): 1.94 µM (inactive)
- GI50 (SK-OV-3): 14.4 µM (inactive)
- GI50 (MDA-MB-435): 2.05 µM (inactive)

Structure (SMILES): O=C1CC2(c3ccccc3)ON=C(c3ccccc3)N2c2ccccc2N1 (stereo unspecified)
- GI50 (786-0): 88.7 µM (inactive)
- GI50 (HCT-116): 34.3 µM (inactive)
- GI50 (TK-10): 93.5 µM (inactive)
- GI50 (NCI-H522): 41.6 µM (inactive)
- GI50 (NCI-H460): 36.7 µM (inactive)
- GI50 (SK-MEL-28): 50.6 µM (inactive)
- GI50 (HOP-92): 22.1 µM (inactive)
- GI50 (ACHN): 61.8 µM (inactive)
- GI50 (OVCAR-5): > 100 µM (inactive)
- GI50 (PC-3): 30.5 µM (inactive)
- GI50 (M14): 60.4 µM (inactive)
- GI50 (SW-620): 62.4 µM (inactive)
- GI50 (SK-MEL-2): 50.2 µM (inactive)
- GI50 (HOP-62): 78.7 µM (inactive)
- GI50 (HL-60): 26.7 µM (inactive)
- GI50 (COLO 205): 51.8 µM (inactive)
- GI50 (SK-OV-3): 19.7 µM (inactive)
- GI50 (MDA-MB-435): 20 µM (inactive)

Structure (SMILES): CC/C(Cl)=N\OC(=O)Nc1ccc(F)cc1F
- GI50 (786-0): 4.38 µM (inactive)
- GI50 (HCT-116): 6.62 µM (inactive)
- GI50 (TK-10): 12 µM (inactive)
- GI50 (NCI-H522): 1.54 µM (inactive)
- GI50 (NCI-H460): 29.1 µM (inactive)
- GI50 (SK-MEL-28): 17.7 µM (inactive)
- GI50 (HOP-92): 1.93 µM (inactive)
- GI50 (ACHN): 1.89 µM (inactive)
- GI50 (OVCAR-5): 17.9 µM (inactive)
- GI50 (PC-3): 17.7 µM (inactive)
- GI50 (M14): 7.6 µM (inactive)
- GI50 (CAKI-1): 1.71 µM (inactive)
- GI50 (SW-620): 1.93 µM (inactive)
- GI50 (SK-MEL-2): 17.4 µM (inactive)
- GI50 (HOP-62): 21 µM (inactive)
- GI50 (HL-60): 1.91 µM (inactive)
- GI50 (COLO 205): 1.91 µM (inactive)
- GI50 (SK-OV-3): 19.3 µM (inactive)
- GI50 (MDA-MB-435): 17 µM (inactive)
